Measured values from patent US10793542B2, “Hetroarylamine compounds for modulating the hedgehog pathway and preparing method and uses thereof” (DEVELOPMENT CENTER FOR BIOTECHNOLOGY, priority 2016, dated 2020).
Blank lines part the entries; values can stand above or below the compound they belong to.

Assays:
Type in all cases: cell-based
[1] = tested on: hedgehog pathway (pGL3-7xGli-Luciferase reporter in C3H10T1/2 cells); assay: Transient transfection of C3H10T1/2 and Gli-Luc reporter assay with SAG stimulation; conditions: Mus musculus, C3H 10T1/2, SAG 20 nM, 48 hr, read-out: Inhibition of Gli-Luc expression [IC50
Experimental: A cell-based screen for inhibitors of the hedgehog pathway was performed using a transient transfection system in C3H10T1/2 cells with pGL3-7xGli-Luciferase reporter plasmids C3H10T1/2 cells (ATCC, cat.#CCL-226) were seeded into 6-well plates at 8×10^4 cells/well in a BME medium containing 10% heat-inactivated FBS. Cells were transfected the next morning with 500 ng/well pGL3-7xGli-Luciferase reporter plasmids and 100 ng/well pRL-TK Renilla luciferase reporter plasmids (Promega)using GeneJuice transfection reagent (Novagene). After 24 h, transfected cells were collected by trypsin treatment and re-plated in 96-well plates in an RPMI medium containing 0.5% FBS with a density of 1.5×10^4 cells/well. Compounds were dissolved in DMSO with serial dilutions and were then added to the assay plate. SAG (Hh-Ag 1.3) (Santa Cruz) was added to the assay plated for a final concentration 20 nM. The assay plates were incubated at 37° C. for 48 hr.
(§1) Firefly luciferase and Renilla luciferase activity was determined using the Dual-Glo Luciferase reporter assay system (Promega) with a Victor3 plate reader (PerkinElmer Life Sciences). Firefly luciferase readings were normalized to Renilla luciferase to correct for transfection efficiency. Luminance reading for the C3H10T1/2-Gli-Luc assay was normalized based on DMSO control with SAG stimulation (100% pathway activity) and without SAG stimulation (0% pathway activity). IC50 values, defined as the inflection point of the logistic curve, were determined by nonlinear regression using the Prism 5 software (GraphPad).

Smo D473H mutant = molecular target: T1, Smo D473H mutant (Homo sapiens, UniProt Q99835, D473H); assay: Reporter assay of C3H10T1/2-Gli-Luc cells transfected with Smo D473H mutant, without SAG; conditions: C3H10T1/2 cells transfected with pLPCX-SMO-D473H, no SAG, 48 hr; read-out: Inhibition of C3H10T1/2-Gli-Luc-Smo-D473H [IC50
T1 construct: expressed in transfected cells; host or cells: C3H10T1/2 cells (ATCC CCL-226), transient transfection with pLPCX-SMO-D473H
T1 sequence (Q99835 28-787 D473H): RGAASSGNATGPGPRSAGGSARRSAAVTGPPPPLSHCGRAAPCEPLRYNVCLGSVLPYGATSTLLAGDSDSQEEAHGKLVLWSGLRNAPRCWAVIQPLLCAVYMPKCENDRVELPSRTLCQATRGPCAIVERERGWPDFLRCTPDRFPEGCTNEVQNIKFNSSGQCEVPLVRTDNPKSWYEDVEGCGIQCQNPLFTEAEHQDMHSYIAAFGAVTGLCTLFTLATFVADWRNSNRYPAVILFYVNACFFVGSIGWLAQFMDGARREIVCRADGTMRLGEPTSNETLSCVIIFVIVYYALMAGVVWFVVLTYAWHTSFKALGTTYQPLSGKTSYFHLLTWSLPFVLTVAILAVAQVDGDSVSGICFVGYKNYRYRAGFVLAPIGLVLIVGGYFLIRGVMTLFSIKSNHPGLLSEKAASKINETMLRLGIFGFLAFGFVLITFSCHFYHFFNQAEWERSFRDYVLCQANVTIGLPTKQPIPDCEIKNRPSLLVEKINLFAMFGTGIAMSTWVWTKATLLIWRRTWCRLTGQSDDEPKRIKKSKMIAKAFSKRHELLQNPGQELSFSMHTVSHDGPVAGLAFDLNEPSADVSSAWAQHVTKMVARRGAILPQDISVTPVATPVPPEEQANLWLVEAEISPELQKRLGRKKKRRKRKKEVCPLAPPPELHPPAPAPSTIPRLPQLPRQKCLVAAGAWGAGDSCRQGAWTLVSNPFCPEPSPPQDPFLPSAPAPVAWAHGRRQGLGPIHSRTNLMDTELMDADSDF
Experimental: (§2) A transient transfection system with a Smo wild type or a Smo D473H mutant was also used for compound screening. For the SMO inhibition experiments, cells were transfected with an additional 500 ng/well of wild-type or D473H-mutant type SMO construct (pLPCX-SMO or pLPCX-SMO-D473H). After 24 h, transfected cells were collected by trypsin treatment and re-plated in 96-well plates in an RPMI medium containing 0.5% FBS with a density of 1.5×10^4 cells/well. Compounds were dissolved in DMSO with serial dilutions and were then added to the assay plate. The assay plates were incubated at 37° C. for 48 hr.
as §1
(§3) The reporter assay of C3H10T1/2-Gli-Luc cells transfected with a wild-type, D473H mutant Smo mutant was carried out with the same protocol but without SAG stimulation. Luminance reading for the SMO inhibition experiments assay was normalized based on DMSO control (100% of the pathway activity) and a known Smo antagonist (ALLO-2 at 10 μM, 0% of the pathway activity).

Smo wild type = molecular target: T2, Smo wild type (Homo sapiens, UniProt Q99835); assay: Reporter assay of C3H10T1/2-Gli-Luc cells transfected with wild-type Smo, without SAG; conditions: C3H10T1/2 cells transfected with pLPCX-SMO, no SAG, 48 hr; read-out: Inhibition of C3H10T1/2-Gli-Luc-Smo-WT [IC50
T2 construct: expressed in transfected cells; host or cells: C3H10T1/2 cells (ATCC CCL-226), transient transfection with pLPCX-SMO
T2 sequence (Q99835 28-787): as the sequence (Q99835 28-787 D473H) above, with H446D counted along it
Experimental: as §2, §1, §3

SMILES: CSc1cnc(Nc2ccc(C(=O)Nc3cc(CN4CCOCC4)ccc3C)cc2)cc1-c1ccc(F)cc1 [Compound 84, 4-((4-(4-fluorophenyl)-5-(methylthio)pyridin-2-yl)amino)-N-(2-methyl-5-(morpholinomethyl)phenyl)benzamide]
IC50 [1]: < 100 nM
IC50 (Smo D473H mutant): 100 to 1000 nM
IC50 (Smo wild type): < 100 nM

SMILES: CCN(CC)Cc1ccc(C)c(NC(=O)c2ccc(Nc3ncc(SC)c(-c4ccc(F)cc4)n3)cc2)c1 [Compound 47, N-(5-Diethylaminomethyl-2-methyl-phenyl)-4-[4-(4-fluoro-phenyl)-5-methylsulfanyl-pyrimidin-2-ylamino]-benzamide]
IC50 [1]: < 100 nM
IC50 (Smo D473H mutant): 100 to 1000 nM
IC50 (Smo wild type): < 100 nM

SMILES: CSc1cnc(Nc2ccc(C(=O)Nc3cc(CN4CCOCC4)ccc3F)cc2)nc1-c1ccc(OC(F)(F)F)cc1 [Compound 70, N-(2-Fluoro-5-morpholin-4-ylmethyl-phenyl)-4-[5-methylsulfanyl-4-(4-trifluoromethoxy-phenyl)-pyrimidin-2-ylamino]-benzamide]
IC50 [1]: < 100 nM
IC50 (Smo D473H mutant): < 100 nM
IC50 (Smo wild type): < 100 nM

SMILES: COc1cccc(C)c1NC(=O)c1ccc(Nc2ncc(SC)c(-c3ccc(OC(F)(F)F)cc3)n2)cc1 [Compound 25, N-(2-Methoxy-6-methyl-phenyl)-4-[5-methylsulfanyl-4-(4-trifluoromethoxy-phenyl)-pyrimidin-2-ylamino]-benzamide]
IC50 [1]: 100 to 1000 nM
IC50 (Smo D473H mutant): 100 to 1000 nM
IC50 (Smo wild type): 100 to 1000 nM

SMILES: CSc1cnc(Nc2ccc(C(=O)Nc3cc(CN(C)C)ccc3C)cc2)nc1-c1ccc(C#N)cc1 [Compound 34, 4-[4-(4-Cyano-phenyl)-5-methylsulfanyl-pyrimidin-2-ylamino]-N-(5-dimethylaminomethyl-2-methyl-phenyl)-benzamide]
IC50 [1]: < 100 nM
IC50 (Smo D473H mutant): 100 to 1000 nM
IC50 (Smo wild type): 100 to 1000 nM

SMILES: COc1cnc(Nc2ccc(C(=O)Nc3cc(CN4CCN(C)CC4)ccc3C)cc2F)nc1-c1ccc(OC(F)(F)F)cc1 [Compound 62, 3-Fluoro-4-[5-methoxy-4-(4-trifluoromethoxy-phenyl)-pyrimidin-2-ylamino]-N-[2-methyl-5-(4-methyl-piperazin-1-ylmethyl)-phenyl]-benzamide]
IC50 [1]: < 100 nM
IC50 (Smo D473H mutant): 100 to 1000 nM
IC50 (Smo wild type): < 100 nM

SMILES: CSc1cnc(Nc2ccc(C(=O)Nc3cc(CN4CCOCC4)ccc3C)cc2F)nc1-c1ccc(OC(F)(F)F)cc1 [Compound 40, 3-Fluoro-N-(2-methyl-5-morpholin-4-ylmethyl-phenyl)-4-[5-methylsulfanyl-4-(4-trifluoromethoxy-phenyl)-pyrimidin-2-ylamino]-benzamide]
IC50 [1]: < 100 nM
IC50 (Smo D473H mutant): < 100 nM
IC50 (Smo wild type): < 100 nM

SMILES: COc1cnc(Nc2ccc(C(=O)Nc3cc(CN4CCN(C)CC4)ccc3C)cc2)nc1-c1ccc(C#N)cc1 [Compound 51, 4-[4-(4-Cyano-phenyl)-5-methoxy-pyrimidin-2-ylamino]-N-[2-methyl-5-(4-methyl-piperazin-1-ylmethyl)-phenyl]-benzamide]
IC50 [1]: < 100 nM
IC50 (Smo D473H mutant): 100 to 1000 nM
IC50 (Smo wild type): < 100 nM

SMILES: CSc1cnc(Nc2ccc(C(=O)Nc3cccc(CN4CCOCC4)c3)cc2)nc1-c1ccc(F)cc1 [Compound 43, 4-[4-(4-Fluoro-phenyl)-5-methylsulfanyl-pyrimidin-2-ylamino]-N-(3-morpholin-4-ylmethyl-phenyl)-benzamide]
IC50 [1]: < 100 nM
IC50 (Smo D473H mutant): 100 to 1000 nM
IC50 (Smo wild type): < 100 nM

SMILES: COc1cccc(C)c1NC(=O)c1ccc(Nc2ncc(SC)c(-c3ccc(F)nc3)n2)c(F)c1 [Compound 17, 3-Fluoro-4-[4-(6-fluoro-pyridin-3-yl)-5-methylsulfanyl-pyrimidin-2-ylamino]-N-(2-methoxy-6-methyl-phenyl)-benzamide]
IC50 [1]: 100 to 1000 nM
IC50 (Smo D473H mutant): 100 to 1000 nM
IC50 (Smo wild type): 100 to 1000 nM

SMILES: CCOc1ccc(-c2nc(Nc3ccc(C(=O)Nc4ccc(Cl)c(C(F)(F)F)c4)cc3)ncc2SC)cn1 [Compound 7, N-(4-Chloro-3-trifluoromethyl-phenyl)-4-[4-(6-ethoxy-pyridin-3-yl)-5-methylsulfanyl-pyrimidin-2-ylamino]-benzamide]
IC50 [1]: 100 to 1000 nM
IC50 (Smo D473H mutant): 100 to 1000 nM
IC50 (Smo wild type): 100 to 1000 nM

SMILES: CSc1cnc(Nc2ccc(C(=O)Nc3ccccc3)cc2)nc1-c1ccc(C#N)cc1 [Compound 3, 4-[4-(4-Cyano-phenyl)-5-methylsulfanyl-pyrimidin-2-ylamino]-N-phenyl-benzamide]
IC50 [1]: 100 to 1000 nM
IC50 (Smo D473H mutant): 100 to 1000 nM
IC50 (Smo wild type): 100 to 1000 nM

SMILES: CNc1cnc(Nc2ccc(C(=O)Nc3cc(CN4CCOCC4)ccc3C)cc2)nc1-c1ccc(OC(F)(F)F)cc1 [Compound 91, N-(2-methyl-5-(morpholinomethyl)phenyl)-4-((5-(methylamino)-4-(4-(trifluoromethoxy)phenyl)pyrimidin-2-yl)amino)benzamide]
IC50 [1]: < 100 nM
IC50 (Smo D473H mutant): < 100 nM
IC50 (Smo wild type): < 100 nM

SMILES: CSc1cnc(Nc2ccc(C(=O)Nc3cc(CN4CCN(C)CC4)ccc3C)cc2)nc1-c1ccc(C#N)cc1 [Compound 35, 4-[4-(4-Cyano-phenyl)-5-methylsulfanyl-pyrimidin-2-ylamino]-N-[2-methyl-5-(4-methyl-piperazin-1-ylmethyl)-phenyl]-benzamide]
IC50 [1]: < 100 nM
IC50 (Smo D473H mutant): 100 to 1000 nM
IC50 (Smo wild type): < 100 nM

The remaining lines, values ahead:

IC50 [1]: < 100 nM
IC50 (Smo D473H mutant): 100 to 1000 nM
IC50 (Smo wild type): 100 to 1000 nM
SMILES: CSc1cnc(Nc2ccc(C(=O)Nc3cc(CN(C)C)ccc3C)cc2)nc1-c1ccc(OC(F)(F)F)cc1 [Compound 54, N-(5-Dimethylaminomethyl-2-methyl-phenyl)-4-[5-methylsulfanyl-4-(4-trifluoromethoxy-phenyl)-pyrimidin-2-ylamino]-benzamide]

IC50 [1]: 100 to 1000 nM
IC50 (Smo D473H mutant): 100 to 1000 nM
IC50 (Smo wild type): < 100 nM
SMILES: CSc1cnc(Nc2ccc(C(=O)Nc3ccccc3C)cc2)nc1-c1ccc(OC(F)(F)F)cc1 [Compound 23, 4-[5-Methylsulfanyl-4-(4-trifluoromethoxy-phenyl)-pyrimidin-2-ylamino]-N-o-tolyl-benzamide]

IC50 [1]: < 100 nM
IC50 (Smo D473H mutant): 100 to 1000 nM
IC50 (Smo wild type): < 100 nM
SMILES: CSc1cnc(Nc2ccc(C(=O)Nc3cc(CN4CCN(C)CC4)ccc3C)cc2)cc1-c1ccc(C(F)(F)F)cc1 [Compound 90, N-(2-methyl-5-((4-methylpiperazin-1-yl)methyl)phenyl)-4-((5-(methylthio)-4-(4-(trifluoromethyl)phenyl)pyridin-2-yl)amino)benzamide]

IC50 [1]: < 100 nM
IC50 (Smo D473H mutant): 100 to 1000 nM
IC50 (Smo wild type): < 100 nM
SMILES: COc1cccc(OC)c1NC(=O)c1ccc(Nc2ncc(SC)c(-c3cccnc3F)n2)cc1 [Compound 9, N-(2,6-Dimethoxy-phenyl)-4-[4-(2-fluoro-pyridin-3-yl)-5-methylsulfanyl-pyrimidin-2-ylamino]-benzamide]

IC50 [1]: < 100 nM
IC50 (Smo D473H mutant): 100 to 1000 nM
IC50 (Smo wild type): < 100 nM
SMILES: CSc1cnc(Nc2ccc(C(=O)Nc3cc(CN4CCOCC4)ccc3C)cc2)nc1-c1ccc(F)nc1 [Compound 67, 4-[4-(6-Fluoro-pyridin-3-yl)-5-methylsulfanyl-pyrimidin-2-ylamino]-N-(2-methyl-5-morpholin-4-ylmethyl-phenyl)-benzamide]

IC50 [1]: < 100 nM
IC50 (Smo D473H mutant): 100 to 1000 nM
IC50 (Smo wild type): 100 to 1000 nM
SMILES: CSc1cnc(Nc2ccc(C(=O)Nc3cc(CN4CCCCC4)ccc3C)cc2)nc1-c1ccc(C(F)(F)F)cc1 [Compound 28, N-(2-Methyl-5-piperidin-1-ylmethyl-phenyl)-4-[5-methylsulfanyl-4-(4-trifluoromethyl-phenyl)-pyrimidin-2-ylamino]-benzamide]

IC50 [1]: < 100 nM
IC50 (Smo D473H mutant): 100 to 1000 nM
IC50 (Smo wild type): < 100 nM
SMILES: COc1cccc(OC)c1NC(=O)c1ccc(Nc2ncc(SC)c(-c3ccc(OC(F)(F)F)cc3)n2)cc1 [Compound 22, N-(2,6-Dimethoxy-phenyl)-4-[5-methylsulfanyl-4-(4-trifluoromethoxy-phenyl)-pyrimidin-2-ylamino]-benzamide]
